Measurements published in ChEMBL document CHEMBL4837250, “Discovery of LYC-55716: A Potent, Selective, and Orally Bioavailable Retinoic Acid Receptor-Related Orphan Receptor-γ (RORγ) Agonist for Use in Treating Cancer” (J Med Chem, 2021).
pEC50: −log10 of the molar value. In brackets after ≈: the same amount, converted by molar mass.

What was measured:
in vivo [1] = conditions: CD1, mouse, po, 10 mg/kg
in vivo [2] = conditions: CD1, mouse, plasma, po, 10 mg/kg
CYP3A4 = CYP3A4 (Homo sapiens, UniProt P08684); experiment: in vitro; conditions: probe testosterone
Chain of CYP3A4 (P08684 whole entry): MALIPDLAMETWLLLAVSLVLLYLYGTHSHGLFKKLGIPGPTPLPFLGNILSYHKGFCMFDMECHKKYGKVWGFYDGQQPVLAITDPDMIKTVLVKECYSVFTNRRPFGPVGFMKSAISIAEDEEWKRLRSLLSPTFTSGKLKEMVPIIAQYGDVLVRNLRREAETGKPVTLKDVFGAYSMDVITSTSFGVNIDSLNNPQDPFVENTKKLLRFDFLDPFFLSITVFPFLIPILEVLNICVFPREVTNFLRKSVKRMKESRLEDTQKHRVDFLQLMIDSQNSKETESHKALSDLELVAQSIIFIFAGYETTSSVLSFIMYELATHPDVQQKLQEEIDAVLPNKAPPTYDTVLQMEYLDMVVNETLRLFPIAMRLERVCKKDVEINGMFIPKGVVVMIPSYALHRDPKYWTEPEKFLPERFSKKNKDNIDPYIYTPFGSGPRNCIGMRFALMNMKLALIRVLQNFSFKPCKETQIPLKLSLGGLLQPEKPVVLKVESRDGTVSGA
Description: Inhibition of CYP3A4 (unknown origin) assessed as oxidation of testosterone at 10 uM

in vivo [3] = conditions: CD1, mouse, po, 10 mg/kg; remark: listed apart in the source
CYP2D6 = CYP2D6 (Homo sapiens, UniProt P10635); experiment: in vitro; conditions: probe testosterone
Chain of CYP2D6 (P10635 whole entry): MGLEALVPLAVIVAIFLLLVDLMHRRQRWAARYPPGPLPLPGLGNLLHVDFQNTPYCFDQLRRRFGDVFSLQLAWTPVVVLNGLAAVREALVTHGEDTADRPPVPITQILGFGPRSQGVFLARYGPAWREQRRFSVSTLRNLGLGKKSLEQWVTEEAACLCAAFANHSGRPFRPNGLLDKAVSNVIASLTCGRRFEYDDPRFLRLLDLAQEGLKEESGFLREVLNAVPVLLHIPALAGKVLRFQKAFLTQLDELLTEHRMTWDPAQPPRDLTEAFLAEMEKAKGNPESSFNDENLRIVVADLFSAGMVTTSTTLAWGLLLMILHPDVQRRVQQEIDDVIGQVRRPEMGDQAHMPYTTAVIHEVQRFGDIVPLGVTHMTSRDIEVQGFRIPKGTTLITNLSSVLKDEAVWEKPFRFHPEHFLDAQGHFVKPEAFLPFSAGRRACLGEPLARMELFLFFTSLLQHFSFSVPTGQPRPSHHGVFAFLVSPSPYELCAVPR
Description: Inhibition of CYP2D6 (unknown origin) assessed as oxidation of testosterone at 10 uM

in vitro [4] = conditions: human, hepatocytes
physchem = conditions: PBS buffer, pH 7.4
Description: Solubility of the compound in pH 7.4 PBS buffer

in vivo [5] = conditions: CD1, mouse, po, 10 mg/kg; remark: listed apart in the source
Description: Half life in CD1 mouse at 10 mg/kg, po

cells = conditions: Mus musculus, C57/BL6
Description: In vivo agonist activity at RORgamma in C57/BL6 mouse assessed as plasma concentration required to increase RORgamma targeted gene expression in isolated thymocytes

in vitro [6] = conditions: mouse, plasma
Description: Plasma protein binding in mouse

in vivo [7] = conditions: Sprague-Dawley, rat, iv, 1 mg/kg
Description: Volume of distribution in Sprague-Dawley rat at 1 mg/kg, iv

[8] = molecular target: T1, Nuclear receptor ROR-alpha (Homo sapiens, UniProt P35398)
T1 sequence (P35398 whole entry): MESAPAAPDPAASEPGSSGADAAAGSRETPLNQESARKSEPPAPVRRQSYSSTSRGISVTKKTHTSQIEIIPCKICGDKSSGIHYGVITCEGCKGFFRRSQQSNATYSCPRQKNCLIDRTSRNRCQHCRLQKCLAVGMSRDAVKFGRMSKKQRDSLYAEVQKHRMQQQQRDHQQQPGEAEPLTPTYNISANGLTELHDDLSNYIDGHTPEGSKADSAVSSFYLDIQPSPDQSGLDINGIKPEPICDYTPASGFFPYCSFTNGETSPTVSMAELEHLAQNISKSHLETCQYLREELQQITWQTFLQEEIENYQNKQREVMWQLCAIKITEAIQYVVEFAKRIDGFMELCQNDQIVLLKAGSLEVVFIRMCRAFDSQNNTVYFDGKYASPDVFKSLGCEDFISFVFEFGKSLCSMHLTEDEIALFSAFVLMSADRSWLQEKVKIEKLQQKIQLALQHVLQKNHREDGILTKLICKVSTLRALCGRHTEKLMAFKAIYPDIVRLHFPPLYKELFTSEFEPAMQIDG
Description: Agonist activity at RORalpha (unknown origin)

hERG (KCNH2) = hERG (KCNH2) (Homo sapiens, UniProt Q12809); experiment: in vitro
Chain of hERG (KCNH2) (Q12809 whole entry): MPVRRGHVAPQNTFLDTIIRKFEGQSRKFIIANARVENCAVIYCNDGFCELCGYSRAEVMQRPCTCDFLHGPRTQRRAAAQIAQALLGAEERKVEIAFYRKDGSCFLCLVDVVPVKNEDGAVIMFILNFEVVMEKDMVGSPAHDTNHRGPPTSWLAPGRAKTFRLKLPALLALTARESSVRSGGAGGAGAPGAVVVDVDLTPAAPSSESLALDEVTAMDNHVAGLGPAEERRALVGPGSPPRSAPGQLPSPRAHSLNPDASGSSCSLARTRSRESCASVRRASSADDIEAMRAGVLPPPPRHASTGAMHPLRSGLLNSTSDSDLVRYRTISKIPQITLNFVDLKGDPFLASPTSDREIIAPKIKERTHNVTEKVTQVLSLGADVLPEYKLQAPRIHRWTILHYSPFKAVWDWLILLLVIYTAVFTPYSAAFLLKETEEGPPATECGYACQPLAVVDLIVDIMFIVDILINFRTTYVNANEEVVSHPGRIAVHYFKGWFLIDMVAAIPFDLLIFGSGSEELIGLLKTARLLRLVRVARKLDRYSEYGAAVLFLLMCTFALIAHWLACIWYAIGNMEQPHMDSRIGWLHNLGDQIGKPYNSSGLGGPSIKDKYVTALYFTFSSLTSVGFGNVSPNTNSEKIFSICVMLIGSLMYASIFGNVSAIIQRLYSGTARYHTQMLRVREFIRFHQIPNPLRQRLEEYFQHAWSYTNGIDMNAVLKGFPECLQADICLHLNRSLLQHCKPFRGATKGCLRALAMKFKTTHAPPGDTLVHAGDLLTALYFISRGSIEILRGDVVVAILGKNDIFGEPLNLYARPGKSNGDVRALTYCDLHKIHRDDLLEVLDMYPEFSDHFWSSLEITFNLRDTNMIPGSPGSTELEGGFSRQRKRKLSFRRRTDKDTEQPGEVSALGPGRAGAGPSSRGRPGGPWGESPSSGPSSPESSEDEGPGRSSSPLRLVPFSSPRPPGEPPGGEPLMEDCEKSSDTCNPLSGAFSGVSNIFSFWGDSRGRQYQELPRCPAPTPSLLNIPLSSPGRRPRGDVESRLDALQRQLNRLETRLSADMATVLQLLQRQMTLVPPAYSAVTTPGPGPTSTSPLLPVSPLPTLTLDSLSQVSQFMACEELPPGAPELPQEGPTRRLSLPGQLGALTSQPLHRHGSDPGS
Description: Inhibition of human ERG by patch-clamp assay

in vivo [9] = conditions: cynomolgus monkey, po, at 30 to 300 mg/kg
in vivo [10] = conditions: cynomolgus monkey, iv, 1 mg/kg
Description: Half life in cynomolgus monkey rat at 1 mg/kg, iv

in vivo [11] = conditions: cynomolgus monkey, iv, 1 mg/kg; remark: listed apart in the source
Description: Volume of distribution in cynomolgus monkey rat at 1 mg/kg, iv

MC-38 = experiment: animal or person; conditions: Mus musculus, MC-38, po, 600 h, read-out: TGI
Description: Antitumor activity against mouse MC38 cells implanted in C57/BL6 mouse assessed as tumor growth inhibition at 30 mg/kg, po twice daily measured up to 25 days

in vivo [12] = conditions: Sprague-Dawley, rat, iv, 1 mg/kg; remark: listed apart in the source
Description: Half life in Sprague-Dawley rat at 1 mg/kg, iv

[13] = molecular target: T2, Nuclear receptor ROR-beta (Homo sapiens, UniProt Q92753)
T2 sequence (Q92753 whole entry): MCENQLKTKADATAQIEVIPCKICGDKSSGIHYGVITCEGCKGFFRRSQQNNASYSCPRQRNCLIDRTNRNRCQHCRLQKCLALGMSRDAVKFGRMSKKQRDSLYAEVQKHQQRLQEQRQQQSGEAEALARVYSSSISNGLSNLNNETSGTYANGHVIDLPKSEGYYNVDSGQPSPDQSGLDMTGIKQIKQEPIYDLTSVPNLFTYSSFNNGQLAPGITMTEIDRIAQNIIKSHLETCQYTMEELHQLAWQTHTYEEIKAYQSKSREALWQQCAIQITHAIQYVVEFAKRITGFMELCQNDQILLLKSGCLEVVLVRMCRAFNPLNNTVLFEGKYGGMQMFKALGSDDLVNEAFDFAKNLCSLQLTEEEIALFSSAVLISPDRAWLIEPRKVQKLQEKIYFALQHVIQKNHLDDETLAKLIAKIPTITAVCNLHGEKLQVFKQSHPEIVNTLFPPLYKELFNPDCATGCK
Description: Agonist activity at RORbeta (unknown origin)

in vivo [14] = conditions: Sprague-Dawley, rat, po, at 30 to 300 mg/kg
in vitro [15] = conditions: human, plasma
Description: Plasma protein binding in human

[16] = molecular target: T3, Nuclear receptor subfamily 1 group I member 2 (Homo sapiens, UniProt O75469)
T3 sequence (O75469 whole entry): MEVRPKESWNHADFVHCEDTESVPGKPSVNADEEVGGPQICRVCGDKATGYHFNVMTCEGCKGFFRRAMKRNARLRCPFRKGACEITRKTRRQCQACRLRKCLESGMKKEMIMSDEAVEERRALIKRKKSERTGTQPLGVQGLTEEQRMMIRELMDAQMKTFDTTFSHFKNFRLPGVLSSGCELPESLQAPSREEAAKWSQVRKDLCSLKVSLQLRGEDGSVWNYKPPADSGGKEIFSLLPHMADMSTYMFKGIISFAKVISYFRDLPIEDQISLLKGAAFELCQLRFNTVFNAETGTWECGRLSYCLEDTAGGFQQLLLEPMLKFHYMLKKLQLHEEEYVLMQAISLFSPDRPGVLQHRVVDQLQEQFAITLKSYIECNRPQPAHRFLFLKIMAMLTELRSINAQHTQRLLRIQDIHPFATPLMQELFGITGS
Description: Agonist activity at human PXR-gamma expressed in HEK293 cells assessed as transcriptional activity in presence of ursolic acid by Gal4-luciferase reporter assay

[17] = molecular target: T4, Nuclear receptor ROR-gamma (Homo sapiens, UniProt P51449)
T4 sequence (P51449 whole entry): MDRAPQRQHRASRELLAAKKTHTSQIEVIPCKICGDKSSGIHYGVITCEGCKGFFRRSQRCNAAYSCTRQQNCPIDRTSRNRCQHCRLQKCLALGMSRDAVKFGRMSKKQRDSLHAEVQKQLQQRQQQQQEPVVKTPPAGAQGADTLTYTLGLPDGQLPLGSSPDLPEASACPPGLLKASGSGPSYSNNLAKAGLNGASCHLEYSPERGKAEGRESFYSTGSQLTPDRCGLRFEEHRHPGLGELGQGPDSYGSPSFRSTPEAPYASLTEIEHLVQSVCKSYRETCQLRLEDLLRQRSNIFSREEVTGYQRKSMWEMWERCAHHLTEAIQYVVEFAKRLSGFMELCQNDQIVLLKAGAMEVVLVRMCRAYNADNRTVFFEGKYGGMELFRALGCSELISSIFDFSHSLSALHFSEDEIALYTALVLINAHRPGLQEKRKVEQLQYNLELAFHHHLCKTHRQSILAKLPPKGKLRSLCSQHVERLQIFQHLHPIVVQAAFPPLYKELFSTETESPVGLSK
Description: Agonist activity at human ROR-gamma LBD expressed in HEK293 cells assessed as transcriptional activity in presence of ursolic acid by Gal4-luciferase reporter assay

[18] = molecular target: T4, Nuclear receptor ROR-gamma; remark: listed apart in the source
Description: Agonist activity at human His-tagged RORgamma-LBD expressed in Sf9 cells assessed as inhibition of N-terminal biotinylated co-activator SRC1 recruitment in presence of ursolic acid measured after 60 mins by FRET assay

in vitro [19] = conditions: human, hepatocytes; remark: listed apart in the source
Description: Clearance in human hepatocyte measured per 10^6 cells

Compound | AUC(0-inf) (in vivo [1]) | CL/F (in vivo [2]) | inhibition at 10 µM (CYP3A4) | bioavailability (in vivo [3]) | inhibition at 10 µM (CYP2D6) | hepatocyte CLint (in vitro [4]) | solubility (physchem) | half-life (in vivo [5]) | pEC50 [16] | pEC50 [17] | pEC50 [18] | other results
O=C(O)CC[C@H]1CN(S(=O)(=O)c2cccc(C(F)(F)F)c2)c2cc(/C=C/c3c(Cl)cccc3C(F)(F)F)ccc2O1 | 71000 ng·h/mL | 2 mL/min/kg | 8% | 86% | 3% | 20 µL/min/1e6 cells | 15 µM (≈ 9.3 µg/mL) | 221 min | – | – | – | –
CC(C)(C[C@H]1CN(S(=O)(=O)c2cccc(C(F)(F)F)c2)c2cc(-c3cc(F)cc(OC(F)F)c3)ccc2O1)C(=O)O [CINTIRORGON] | 3240 ng·h/mL | – | 9.5% | 55% | 6% | – | 10 µM (≈ 6.04 µg/mL) | 259 min | – | – | – | pEC50 (cells): 6.47; fraction unbound (in vitro [6]): 0.033; Vd (in vivo [7]): 5.7 L/kg; pEC50 [8]: < 5.00; IC20 (hERG (KCNH2)): > 50 µM; bioavailability (in vivo [9]): ≥ 100%; half-life (in vivo [10]): 396 min; Vd (in vivo [11]): 1.42 L/kg; inhibition in vivo at 30 mg/kg (MC-38): 46%; half-life (in vivo [12]): 168 min; pEC50 [13]: < 5.00; bioavailability (in vivo [14]): ≥ 100%; fraction unbound (in vitro [15]): 0.044
O=C(O)CC[C@H]1CN(S(=O)(=O)c2cccc(C(F)(F)F)c2)c2cc(-c3ccccc3Cl)ccc2O1 | 11700 ng·h/mL | 11.1 mL/min/kg | 20% | 78% | 0% | 32 µL/min/1e6 cells | 243 µM (≈ 128 µg/mL) | 266 min | < 5.00 | 6.38 | 8.05 | –
O=C(O)CC[C@H]1CN(S(=O)(=O)c2cccc(C(F)(F)F)c2)c2cc(-c3cccc(F)c3Cl)ccc2O1 | 19600 ng·h/mL | 8.1 mL/min/kg | 11% | 95% | 6% | 26 µL/min/1e6 cells | 247 µM (≈ 134 µg/mL) | 207 min | < 5.00 | 6.84 | 6.58 | –
CC(C)(C[C@H]1CN(S(=O)(=O)c2cccc(C(F)(F)F)c2)c2cc(-c3cc(F)ccc3F)ccc2O1)C(=O)O | 9820 ng·h/mL | 13.2 mL/min/kg | 28% | 78% | 6% | 7.7 µL/min/1e6 cells | 13 µM (≈ 7.22 µg/mL) | 441 min | < 5.00 | 6.46 | 7.89 | –
O=C(O)C1(C[C@H]2CN(S(=O)(=O)c3cccc(C(F)(F)F)c3)c3cc(-c4cc(F)cc(OC(F)F)c4)ccc3O2)COC1 | 1400 ng·h/mL | 70.2 mL/min/kg | – | 59% | – | 17 µL/min/1e6 cells | 262 µM (≈ 162 µg/mL) | 164 min | – | – | – | hepatocyte CLint (in vitro [19]): 17 µL/min/1e6 cells
CCOc1nn2c(c1S(=O)(=O)N1C[C@H](CCC(=O)O)Oc3ccc(/C=C(\C)c4c(F)cccc4Cl)cc31)CCCC2 | 35600 ng·h/mL | 7.8 mL/min/kg | 19% | 100% | 6% | 15 µL/min/1e6 cells | 288 µM (≈ 174 µg/mL) | 99.6 min | < 5.00 | 6.70 | – | –
